Source: US20250163010A1, “PROCESSES FOR THE PREPARATION OF N-(1-METHYLCYCLOPROPYL)-2-(3-PYRIDINYL)-2H-INDAZOLE-4-CARBOXAMIDE AND INTERMEDIATES THEREOF” (FMC CORPORATION, priority 2022, published 2025)

What was measured:
[1] = Stable polymorph form screen by slurry experiments; assay type: physicochemical; conditions: between 2° C. and 73° C.; conclusion from slurries
Protocol: Slurry experiments were conducted to identify the stable form at various conditions. In these experiments, saturated solutions in various solvents containing excess undissolved solids (starting with Form A+minor Form B) were stirred for extended durations. Slurries at room temperature (RT) and 2-8° C. were typically conducted for approximately 2 weeks, while slurries at 72-73° C. were stirred for a shorter duration (1 day) to minimize the potential for decomposition. […] The results are shown in the table 12 where the time and temperatures are approximate.

[2] = Form A and Form B interconversion (competitive) slurries; assay type: physicochemical
Protocol: Relative thermodynamic stabilities of anhydrous/non-solvated Forms A and B were studied at 2-8° C., room temperature (RT) and at 71-72° C. via interconversion (competitive) slurries. In these slurries, a given solvent system was pre-saturated with compound 092 (Form A+minor Form B) at the stated temperature, and a portion of the liquid phase was filtered into a mixture of solids containing relatively equal amounts of Form A and Form B. Interconversion slurries at 2-8° C. and RT were allowed to stir for 22 days, while slurries at 71-72° C. stirred for shorter duration (2-4 days). […] The results are reported in table 13 below where: liquid phase for each slurry was pre-saturated using as-received Form A+minor Form B; solvent ratios are v/v; water activity values were calculated using UNIFAC calculator at RT; and times and temperatures are approximate.

SMILES	Relative stability of polymorph forms [1]	Relative thermodynamic stability of polymorph forms ([2]; between 2° C. and 72° C., conclusion from competitive slurries)	Final form (XRPD Result) ([2]; competitive slurry in EtOH, 71-72° C., 2 d, relatively equal amounts of Form A and Form B)	Final form (XRPD Result) ([2]; competitive slurry in EtOH, RT, 22 d, relatively equal amounts of Form A and Form B)	Final form (XRPD Result) ([2]; competitive slurry in NMP/water 80:20 (aw 0.39), 2-8° C., 22 d, relatively equal amounts of Form A and Form B)	Final form (XRPD Result) ([2]; competitive slurry in NMP/water 80:20 (aw 0.39), 71-72° C., 2 d, analyzed damp)	Final form (XRPD Result) ([2]; competitive slurry in NMP/water 80:20 (aw 0.39), RT, 22 d, relatively equal amounts of Form A and Form B)
CC1(NC(=O)c2cccc3nn(-c4cccnc4)cc23)CC1 [Form A, N-(1-methylcyclopropyl)-2-(3-pyridinyl)-2H-indazole 4-carboxamide]	more stable than Form B	thermodynamically stable form	–	–	–	–	–
CC1(NC(=O)c2cccc3nn(-c4cccnc4)cc23)CC1 [Form A + Form B, N-(1-methylcyclopropyl)-2-(3-pyridinyl)-2H-indazole 4-carboxamide]	–	–	Form A	Form A	Form A	Form A	Form A
